“Also recorded” adds a separate entry of the source.
How the values were obtained:
[1] = test system: ICAM-1s (circulating soluble ICAM-1); test: Circulating soluble ICAM-1 in serum (ELISA) in long-term clinical study of patients with stable angina pectoris; format: in vivo, human; conditions: for concentration of ICAM-1s, Mean ± SD: 4 weeks double-blind
Procedure: This study comprised 3 consecutive phases: • a 7-day pre-study under placebo; • a 4-week double-blind and double-placebo randomized crossover study during which the patients received alternately (2×2 weeks) a molsidomine-based formulation containing an 8 mg dose, currently marketed in Belgium under the name Corvatard® (2 daily dosage units), and a molsidomine-based formulation containing a 16 mg dose, effective over 24 hours, currently marketed in Belgium under the name Coruno® (1 daily dosage unit); and • a 12-month study during which the 172 patients received a molsidomine-based formulation containing a 16 mg dose, currently marketed in Belgium under the name Coruno®. Also, and of greatest importance, the concentrations of ICAM-1s were measured after each of the three phases of the study, the first measurement constituting the baseline. More precisely, the concentrations of ICAM-1s were measured as follows: Blood samples (5 ml) were taken in non-heparinized tubes. These samples were kept at room temperature and then centrifuged. The serum was separated off and immediately frozen at −20° C. until required for analysis. The circulating ICAM-1 was measured using a commercially available ELISA test (R&D Systems Europe).

[2] = Weekly frequency of angina attacks and of consumption of s.l. ISDN 5 mg tablets in clinical study; format: in vivo, human
Procedure: This study comprised 3 consecutive phases: • a 7-day pre-study under placebo; • a 4-week double-blind and double-placebo randomized crossover study during which the patients received alternately (2×2 weeks) a molsidomine-based formulation containing an 8 mg dose, currently marketed in Belgium under the name Corvatard® (2 daily dosage units), and a molsidomine-based formulation containing a 16 mg dose, effective over 24 hours, currently marketed in Belgium under the name Coruno® (1 daily dosage unit); and • a 12-month study during which the 172 patients received a molsidomine-based formulation containing a 16 mg dose, currently marketed in Belgium under the name Coruno®. It is pointed out that, during the second phase of the study, the concomitant use of other antianginal drugs was prohibited with the exception of sublingual (s.l.) isosorbide dinitrate (ISDN) 5 mg in tablet form, which could be consumed ad libitum to alleviate the symptoms of anginal pain. In the course of this study, the weekly frequency of angina attacks and the weekly frequency of consumption of s.l. ISDN 5 mg tablets were noted.

[3] = 4-week treatment, versus baseline

Compound: CCOC(=O)[N-]c1cn(N2CCOCC2)n[o+]1 [molsidomine]
- effect on the levels of circulating ICAM-1s ([1]; 4-week treatment (16 mg o.a.d. or 8 mg b.i.d.)): no effect; also recorded: did not cause any effect
- concentration of ICAM-1s, Mean ± SD ([1]; alcohol <1 glass/day, N=161): 276 ± 89 ng/mL
- concentration of ICAM-1s, Mean ± SD ([1]; alcohol ≧1 glass/day, N=11): 242 ± 38 ng/mL
- concentration of ICAM-1s, Mean ± SD ([1]; all patients, N=172): 274 ± 87 ng/mL
- concentration of ICAM-1s, Mean ± SD ([1]; both concomitant drugs, N=20): 247 ± 45 ng/mL
- concentration of ICAM-1s, Mean ± SD ([1]; concomitant beta-blockers, N=30): 281 ± 58 ng/mL
- concentration of ICAM-1s, Mean ± SD ([1]; concomitant statins, N=38): 277 ± 70 ng/mL
- concentration of ICAM-1s, Mean ± SD ([1]; former smokers, N=59): 277 ± 67 ng/mL
- concentration of ICAM-1s, Mean ± SD ([1]; men, N=117): 264 ± 58 ng/mL
- concentration of ICAM-1s, Mean ± SD ([1]; no concomitant medication, N=78): 276 ± 112 ng/mL
- concentration of ICAM-1s, Mean ± SD ([1]; non-smokers, N=81): 262 ± 74 ng/mL
- concentration of ICAM-1s, Mean ± SD ([1]; smokers, N=32): 297 ± 138 ng/mL
- concentration of ICAM-1s, Mean ± SD ([1]; women, N=55): 293 ± 128 ng/mL
- consumption of sublingual nitro compounds [2, 3]: decreased
- number of angina attacks [2, 3]: decreased
- antianginal effects ([2]; after one year): maintained or even improved

Reference: US7754715B2, “Sustained-release oral molsidomine composition for treating atherosclerosis” (Therabel Pharmaceuticals Limited, priority 2004, dated 2010)
